Measurements as given in the supplement of paper PMC10307832.

Columns and labels:
Assay in all cases: relative viability (nuclei count vs DMSO), 5 days (fraction); higher = more cells survive
[1] = compound: C[C@@H](Oc1cc(-c2cnn(C3CCNCC3)c2)cnc1N)c1c(Cl)ccc(F)c1Cl [Crizotinib] + CCNC(=O)c1noc(-c2cc(C(C)C)c(O)cc2O)c1-c1ccc(CN2CCOCC2)cc1 [Luminespib] (partner 0.01 µM)
Summary of the method: (§1)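 Each reported value is a median over duplicate plates. It expresses relative viability: treated-well nuclei count divided by vehicle-well nuclei count. Lung cancer cell lines in 1536-well plates were dosed by pin tool a day after seeding, alone with one drug or with a fixed anchor-drug dose plus five library-drug doses (not always all listed) in √10 steps, and nuclei were counted after 5 days.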

[2] = compound: O=C(c1cc(Cc2n[nH]c(=O)c3ccccc23)ccc1F)N1CCN(C(=O)C2CC2)CC1 [Olaparib] + Nc1ncn([C@H]2C[C@H](O)[C@@H](CO)O2)c(=O)n1 [Decitabine] (partner 2 µM)
Summary of the method: as §1

[3] = compound: O=C(c1cc(Cc2n[nH]c(=O)c3ccccc23)ccc1F)N1CCN(C(=O)C2CC2)CC1 [Olaparib] + C[C@@H](Oc1cc(-c2cnn(C3CCNCC3)c2)cnc1N)c1c(Cl)ccc(F)c1Cl [Crizotinib] (partner 1 µM)
Summary of the method: as §1

[4] = compound: C[C@@H](Oc1cc(-c2cnn(C3CCNCC3)c2)cnc1N)c1c(Cl)ccc(F)c1Cl [Crizotinib] + O=C(CCCCCCC(=O)Nc1ccccc1)NO [Vorinostat] (partner 1 µM)
Summary of the method: as §1

| Cell Line | relative viability ([1]; first compound 0.01 µM) | relative viability ([1]; first compound 0.03162 µM) | relative viability ([1]; first compound 0.3162 µM) | relative viability ([2]; first compound 0.08 µM) | relative viability ([2]; first compound 0.253 µM) | relative viability ([2]; first compound 2.53 µM) | relative viability ([2]; first compound 8 µM) | relative viability ([3]; first compound 0.08 µM) | relative viability ([3]; first compound 0.253 µM) | relative viability ([3]; first compound 2.53 µM) | relative viability ([3]; first compound 8 µM) | relative viability ([4]; first compound 0.01 µM) | relative viability ([4]; first compound 0.03162 µM) | relative viability ([4]; first compound 0.1 µM) | relative viability ([4]; first compound 0.3162 µM) | relative viability ([4]; first compound 1 µM) | relative viability ([1]; first compound 0.1 µM) | relative viability ([1]; first compound 1 µM) |
| --- | --- | --- | --- | --- | --- | --- | --- | --- | --- | --- | --- | --- | --- | --- | --- | --- | --- | --- |
| 201T | 1.01 | 1.07 | 1.06 | 0.819 | 0.68 | 0.611 | 0.632 | 1.01 | 1 | 1.01 | 0.973 | 0.899 | 1.01 | 0.98 | 0.974 | 1.04 |  |  |
| A549 |  |  |  | 0.119 | 0.073 | 0.0622 | 0.0462 | 0.884 | 0.654 | 0.777 | 0.358 |  |  |  |  |  |  |  |
| A-427 | 0.91 | 0.904 |  | 0.471 | 0.478 | 0.483 | 0.404 | 0.958 | 0.882 | 0.705 | 0.71 | 0.836 | 0.871 | 0.876 |  | 0.899 | 0.946 | 0.963 |
| ABC-1 |  | 0.865 | 0.496 | 1.07 |  | 0.836 | 0.718 | 1.57 | 1.04 | 1.19 | 0.961 | 1.04 | 1.06 | 1.22 |  | 1.02 | 0.628 |  |
| BEN | 0.504 | 0.301 | 0.198 | 0.654 | 0.55 | 0.639 | 0.641 | 0.856 | 0.82 | 1 | 0.931 | 0.553 | 0.55 | 0.628 | 0.506 | 0.573 | 0.38 | 0.549 |
| CAL-12T | 0.297 | 0.339 |  |  |  |  |  | 0.917 | 0.575 | 0.95 | 0.572 | 0.855 | 0.788 | 0.647 | 0.713 | 0.725 | 0.232 | 0.201 |
| COR-L23 | 0.655 | 0.665 | 0.775 | 0.353 | 0.266 | 0.216 | 0.199 | 0.852 | 0.58 | 0.515 | 0.274 | 0.43 | 0.418 | 0.484 | 0.4 | 0.471 | 0.656 | 0.687 |
| COR-L 105 | 0.686 | 0.859 | 0.804 | 0.581 | 0.618 | 0.52 | 0.512 | 0.866 | 0.668 | 0.621 | 0.522 | 0.824 | 0.96 | 0.696 | 0.858 | 0.893 | 0.712 | 0.769 |
| Calu-6 |  |  |  |  |  |  |  | 1.08 | 0.662 | 0.74 | 0.573 |  |  |  |  |  |  |  |
| ChaGo-K-1 | 0.438 | 0.546 | 0.526 | 0.45 | 0.43 | 0.355 | 0.329 | 1.26 | 1.06 | 1.31 | 0.862 | 0.703 | 0.706 | 0.712 | 0.4 | 0.727 | 0.517 | 0.747 |
| EBC-1 |  |  |  |  |  |  |  | 0.206 | 0.178 | 0.203 | 0.186 |  |  |  |  |  |  |  |
| EKVX | 0.953 |  | 0.939 | 0.238 | 0.276 | 0.337 | 0.276 | 1.13 | 0.831 | 1.08 | 0.98 | 0.455 | 0.662 | 0.708 | 0.712 | 0.637 | 0.947 | 0.865 |
| EMC-BAC-2 | 1.12 | 1.25 | 1.16 | 0.931 | 0.869 | 0.669 | 0.599 | 0.767 | 0.727 | 0.638 | 0.603 | 0.524 | 0.418 | 0.494 |  | 0.365 | 1.09 | 1.22 |
| EPLC-272H | 0.236 | 0.343 | 0.262 | 0.478 | 0.349 | 0.302 | 0.329 | 1.06 | 0.751 | 1.07 | 0.864 | 0.41 | 0.398 | 0.361 | 0.403 | 0.581 | 0.197 | 0.577 |
| H3255 | 0.928 | 0.971 | 0.743 | 0.548 | 0.516 | 0.621 | 0.444 | 0.901 | 0.913 | 0.885 | 0.814 | 0.782 | 0.841 | 0.765 | 0.784 | 0.999 | 0.831 |  |
| HARA | 0.819 | 0.77 |  | 0.437 | 0.397 | 0.396 | 0.338 | 1.04 | 0.93 | 1.08 | 0.803 | 0.494 | 0.491 | 0.532 | 0.54 | 0.523 | 0.708 | 0.682 |
| HCC-15 | 0.382 | 0.409 |  | 0.682 | 0.479 | 0.463 | 0.344 | 0.96 | 0.75 | 0.851 | 0.69 | 0.802 | 0.875 | 0.926 | 0.847 | 0.875 | 0.443 | 0.334 |
| HCC-44 | 1.03 | 0.99 | 1.05 | 0.812 | 0.846 | 0.783 | 0.802 | 0.914 | 0.729 | 0.841 | 0.825 | 1.03 | 1.13 | 1.18 | 1.01 | 1.14 | 0.988 | 1.06 |
| HCC-78 |  |  |  | 0.613 | 0.562 | 0.508 | 0.455 | 0.395 | 0.356 | 0.396 | 0.368 | 0.418 | 0.388 | 0.402 | 0.336 | 0.437 |  |  |
| HCC-366 |  |  |  | 0.186 | 0.144 | 0.0931 | 0.113 | 0.517 | 0.473 | 0.238 | 0.145 | 0.336 | 0.423 | 0.31 |  | 0.403 |  |  |
| HCC-827 | 0.542 | 0.651 | 0.52 | 0.306 | 0.266 | 0.291 | 0.231 | 0.941 | 0.908 | 0.949 | 0.814 | 0.873 | 0.602 | 0.917 | 0.884 |  | 0.784 | 0.646 |
